# Measured values from US20050222126A1, “Antiangiogenic compounds and an assay for inhibitors of cell invasion” (priority 2001, published 2005).
# Entries after “also recorded” stand apart in the source; their conditions may differ.
# Key:
# [1] = system: axonal growth cones; assay: Neuronal migration in insect embryo model; assay type: in vivo; settings: 5 μM
# Procedure: Synthetic dihydromotuporamine (DiH-MPC, 5 μM) affected neuronal migration in a well-characterized insect embryo model. DiH-MPC slowed stereotypical migration of axonal growth cones whose ultimate synaptic targets are in the central nervous system (CNS). […] Therefore, the motuporamines have application in situations where reduced axonal sprouting would be of benefit after CNS wounding. This is of particular interest in spinal cord lesions where wound-induced axonal sprouting and migration (i.e. plasticity) leads to the inappropriate intermingling of neuronal pathways, which is a major impediment to clinically efficacious CNS regeneration.
# [2] = system: MDA 231 cells; assay: Assay for invasion inhibitors (Matrigel, recovery of non-invading cells, MTT); assay type: cell-based, human; settings: for IC50: 2.5 h, read-out: IC50 invasion inhibition
# Procedure: Matrigel (Collaborative Biomedical Products, Bedford, Mass.) was diluted 1:1 in ice-cold DMEM/F12 and 50 μl was pipetted into wells of ice-cold 96-well cell culture plates (Falcon) using ice-cold pipette tips, avoiding the sides of each well. The matrix was then allowed to gel and then dry overnight in a dry 37° C. incubator followed by rehydration with 100 μl of growth medium 1 h prior to cell plating. This treatment produces a matrix that is less prone to breakage. On top of the Matrigel, was added 100 μl medium warmed to 37° C., with or without 1 μl of sponge extract dissolved in DMSO, followed by 100 μl medium containing 60,000 MDA 231 cells. Addition of 1 μl of DMSO served as a negative control. 50 μM […] LY294002, a phosphatidylinositol 3-kinase inhibitor known to inhibit invasion, served as a positive control. The cells were then incubated for 2.5 h to allow invasion to take place.
# Most of the cell culture, medium was removed without disturbing the cells. This may be accomplished using a hand-held pipettor, but more consistent results are achieved using the aspiration function of a Bio-Tek Elx405 96-well plate washer with the aspiration needle positioned about 2 mm above the surface of the Matrigel. […] The cells were then suspended by pipetting up and down three times using the 100 μl setting of a hand-held pipettor, and 100 μl was withdrawn and transferred to fresh plates without Matrigel containing 100 μl medium supplemented with 30% fetal calf serum to inactivate the trypsin. The cells were then incubated overnight to allow attachment of cells to the plastic surface. Live cells were measured using the MTT assay: the cell culture medium was replaced with 100 μl fresh medium and 25 μl of a 5 mg/ml solution of 3(4,5-dimethylthiazol-2-yl)-2,5-diphenyltetrazolium bromide in phosphate-buffered saline. After 2 hr at 37° C., the solution was removed and 100 μl of 20% sodium dodecyl sulfate dissolved in dimethylformamide: water (1:1) was added to lyse the cells. After overnight incubation at 37° C., absorbance was measured at 570 nm.
# [3] = system: MDA 231 cells; assay: Cytotoxicity: cell proliferation after 24 h incubation with compound; assay type: cell-based, human; settings: for effects on cell proliferation: 24 h, proliferation followed up to 5 additional days
# Procedure: The cytotoxic effects of Motuporamine C were examined by incubating cells in the presence of different concentrations of the compound for 24 h. Motuporamine C was washed away and cell proliferation was measured for up to 5 additional days. […] Likewise, the compounds shown in FIGS. 1, 2, 4, 5, 6, and 8-13 have low cytotoxicity.
# [4] = system: MDA 231 cells; assay: Cell spreading and actin cytoskeleton on tissue culture plastic; assay type: cell-based, human
# Procedure: The cells were plated on rigid tissue culture plastic in the presence of serum, which contains spreading factors (Ham). Under these conditions, most MDA 231 cells spread on the plastic within 4 h in the absence of Motuporamine C. […] These ruffles, which appear black in phase contrast microscopy represent sites of dynamic actin-mediated membrane movement in both spreading and migrating cells. […] These rounded cells remained attached to the tissue culture plastic by small lamellae that had small, discontinuous ruffles.
# MDA 231 cells were also pre-spread for 20 hours on tissue culture plastic and then treated with Motuporamine C (5 μM) for 4 hours.
# [5] = system: MDA 231 cells; assay: Cell migration: closure of gap in confluent monolayer; assay type: cell-based, human; settings: 5 μM, 24 hours
# Procedure: The effects of Motuporamine C on cell spreading and actin ruffling indicates invasion inhibition by decreasing cell migration. A sterile toothpick was drawn across a confluent monolayer of MDA 231 cells, leaving a cell-free gap of about 100 μm. Closure of the gap by cell migration was monitored by microscopy. In the absence of Motuporamine C, cells migrated into the gap and essentially closed it within 24 hours. These cells had broad lamellar ruffles along their leading edges throughout which were condensations of actin. […] These cells had only small and discontinuous ruffles along their leading edges and contained only small discrete patches of actin, looking similar to the “button-like” condensations observed in pre-spread cells.
# [6] = system: HUVEC; assay: Endothelial sprouting assay; assay type: cell-based, human; settings: VEGF 15 ng/ml
# Procedure: Endothelial sprouting was assessed by a modification of Nehls, V. and Drenckham, D. (1995) Microvasc. Res, 50:311-322). Microcarrier beads coated with denatured collagen (Cytodex 3, Sigma) were seeded with HUVEC. When the cells reached confluence an the beads, equal numbers of HUVEC-coated beads were embedded in fibrin gels in 96-well plates. For preparation of fibrin gels, bovine fibrinogen was dissolved in MCDB medium at a concentration of 2.5 mg/ml. Aprotinin was added at a concentration of 0.05 mg/ml and the solution was filtered through a 0.22 μm filter. The fibrinogen solution was supplemented with 15 ng/ml vascular endothelial growth factor (VEGF) with or without Motuporamine C. As a control, fibrinogen solution without VEGF or Motuporamine C was used. […] After 3 days of incubation with daily changes of the medium, the number of capillary-like tubes formed per microcarrier bead (sprouts/bead) was counted by microscopy. Only sprouts greater than 150 μm in length and composed of at least 3 endothelial cells were counted.
# In the endothelial sprouting assay, human umbilical vein endothelial cells (HUVEC) are seeded onto collagen-coated beads. Exposure to vascular endothelial growth factor stimulates the formation of capillary-like tubes called sprouts, whose number and length may be measured over time by microscopy.
# [7] = system: chick chorioallantoic membrane; assay: Chick chorioallantoic membrane assay (CAM) for angiogenesis; assay type: in vivo, chicken; settings: VEGF 30 ng/ml
# Procedure: Fertilized white Leghorn chicken eggs were incubated at 37° C. under conditions of constant humidity. On embryonic day 6, the developing chorioallantoic membrane (CAM) was separated form the shell by opening a small circular window at the broad end of the egg above the air sac. After removal of the inner membrane, the opening was sealed with Parafilm and the eggs were incubated for 2 more days. Motuporamine C was prepared in PBS supplemented with 30 ng/ml VEGF. On day 8, 20 μl was loaded onto 2 mm^3 gelatin sponges (Gelfoam, Pharmacia Upjohn) that were placed on the surface of the developing CAM. Sponges containing vehicle alone (20 μl PBS) were used as negative controls whereas sponges containing 20 μl of 30 ng/ml VEGF in PBS were used as positive controls, Eggs were resealed and returned to the incubator. On day 10, images of CAM were captured digitally using an Olympus SZX9 stereomicroscope equipped with a Sport RT digital imaging system (Diagnostics Instruments).
# [8] = system: HUVEC; assay: HUVEC survival and proliferation; assay type: cell-based, human
# Procedure: (§1) Motuporamine C had no effect on survival of confluent HUVEC at concentrations up to 10 μM and for up to 72 hours. […] Rather, Motuporamine C inhibited HUVEC migration as assessed using a modified Boyden chamber assay.
# [9] = system: HUVEC; assay: HUVEC migration, modified Boyden chamber assay; assay type: cell-based, human; settings: 2.5 μM and 5 μM, VEGF 15 ng/ml
# Procedure: as §1
# [10] = system: Lewis Lung and SCCVII tumours; assay: Tumour growth in vivo; settings: i.p. daily, 10-15 mg/kg/day, mice
# [11] = system: primary Lewis lung tumour; assay: Development of tumour metastases in vivo; settings: i.p. 15 mg/kg/day, C57 mice, primary tumour irradiated
# Procedure: Primary tumours were grown to a specific size and then irradiated permitting the animals to survive long enough for lung metastases to be quantified.
structure (smiles),measurement,setting,value
"NCCCNCCCN1CCCCCCCCCCCCCC1 [DiH-MPC, Dihydromotuporamine C]",migration of axonal growth cones,[1],slowed
same,steering or pathfinding of growth cones,[1],no steering or pathfinding deficits
NCCCNCCCN1CCCCCCCCCCCC1 [Motuporamine A],IC50,[2]; MDA 231 cells on Matrigel,3000 nM
NCCCNCCCN1CCCC/C=C\CCCCCCCC1 [Motuporamine C],detachment of cells from the matrix,[2]; 5 μM,did not cause the cells to detach
same,activity in the invasion inhibition assay (in words),[2]; MDA 231 cells on Matrigel,strong activity; also recorded: slightly more active
same,concentration that completely inhibited invasion,[2]; MDA 231 cells on Matrigel,5 µM
same,IC50,[2]; MDA 231 cells on Matrigel,1000 nM
same,effects on cell proliferation,[3]; 1.6 μM,no detectable effects
same,effects on cell proliferation,[3]; 4 and 8 μM,mild inhibition
same,cytotoxicity (in words),"[3]; proliferating MDA 231 cells, low micromolar concentrations",little or no toxicity
same,cell spreading,"[4]; plated on plastic with serum, 4 h, increasing doses up to 5 μM",decreased cell spreading
same,rounding of pre-spread cells,"[4]; pre-spread 20 hours, 5 μM for 4 hours",did not round-up
same,actin cytoskeleton (rhodamine-phalloidin staining),"[4]; pre-spread cells, 5 μM for 4 hours",subtle changes
same,rounding of pre-spread cells,[4]; treatment up to 48 hours,did not cause significant cell rounding
same,cell migration (gap closure),[5],slows cell migration
same,sprout formation in response to VEGF,[6]; 2.5 μM,clear inhibition
same,sprout formation in response to VEGF,[6]; 5 μM,complete inhibition
same,angiogenesis in CAM assay,[7],inhibits angiogenesis
same,proliferation rate of HUVEC,[8],does not decrease
same,survival of confluent HUVEC,"[8]; up to 10 μM, up to 72 hours",no effect
same,migration of HUVEC towards VEGF,[9],inhibited the migration
same,reduction in tumour growth rate compared to controls,[10],25-50%
same,tumour growth compared to vehicle controls,[10],significant decrease
same,incidence of lung metastases,[11],decreased incidence
NCCCNCCCn1c2ccccc2c2ccccc21 [carbazole analog],activity in the invasion inhibition assay (in words),[2]; MDA 231 cells on Matrigel,potent activity
same,IC50,[2]; MDA 231 cells on Matrigel,3000 nM
"C=C1[C@@H](C)[C@H]2[C@H](Cc3ccccc3)NC(=O)[C@]23[C@H](OC(C)=O)/C=C/[C@@](C)(O)C(=O)[C@@H](C)C/C=C/[C@H]3[C@@H]1O [cytochalasin D, reference compound]",actin cytoskeleton,[4]; 1 μg/ml,complete disassembly of the actin filaments
same,rounding of pre-spread cells,[4]; 1 μg/ml,round up completely
